Assay: Inhibition of chymotrypsin (unknown origin)
Details: Homo sapiens

Row | Compound | log1/Ki
1 | O=C(NCCc1c[nH]c2ccccc12)C(F)(F)F | 2.92
2 | CC(=O)NCc1ccccc1 | 2.12
3 | O=CNc1ccc(Cl)cc1 | 3.4
4 | O=C(O)C(Cc1ccccc1)NC(=O)C(F)(F)F (stereo not drawn) | 2.1
5 | Cc1ccc(NC=O)cc1 | 2.52
6 | O=C(CCl)NCCc1ccccc1 | 2
7 | N#Cc1ccc(NC=O)cc1 | 1.9
8 | O=C(O)C(Cc1cccc(F)c1)NC(=O)C(F)(F)F (stereo not drawn) | 2.57
9 | NC(=O)CCCc1ccccc1 | 1.92
10 | COc1cccc(NC=O)c1 | 2.17
11 | NC(=O)CCc1ccccc1 | 2.15
12 | NC(=O)CCc1c[nH]c2ccccc12 | 2.64
13 | Cc1ccc(CC(NC(=O)C(F)(F)F)C(=O)O)cc1 (stereo not drawn) | 2.82
14 | COc1ccc(NC=O)cc1 | 2.06
15 | O=C(CCl)NCc1ccccc1 | 2.31
16 | CC(=O)c1ccc(NC=O)cc1 | 1.72
17 | O=C(O)C(Cc1ccc(Br)cc1)NC(=O)C(F)(F)F (stereo not drawn) | 3

Row | Compound | log1/Ki
18 | CC(=O)NCCc1ccccc1 | 1.94
19 | O=CNc1ccccc1 | 2.4
20 | O=C(O)C(Cc1ccc(F)cc1)NC(=O)C(F)(F)F (stereo not drawn) | 2.89
21 | O=CNc1cccc(Cl)c1 | 3.1
22 | NC(=O)CNC(=O)c1ccccc1 | 1.9
23 | CC(=O)Nc1ccccc1 | 1.89
24 | CCC(=O)Nc1ccccc1 | 2.18
25 | CC(=O)NCCc1c[nH]c2ccccc12 | 2.74
26 | NC(=O)c1ccccc1 | 2
27 | O=C(O)C(Cc1ccc(F)cc1F)NC(=O)C(F)(F)F (stereo not drawn) | 2.35
28 | Cc1cccc(CC(NC(=O)C(F)(F)F)C(=O)O)c1 (stereo not drawn) | 2.35
29 | O=CNc1ccc([N+](=O)[O-])cc1 | 2.42
30 | COC(=O)c1nc2ccccc2[nH]1 | 2.25
31 | NC(=O)Cc1ccccc1 | 1.82
32 | NC(=O)c1ccnc2ccccc12 | 2.08
33 | CCC(=O)NCc1ccccc1 | 2.2

Reference: ChEMBL document CHEMBL3243920, “Quantitative structure-activity relationships of chymotrypsin. On the predictive value of correlation equations” (J Med Chem, 1977)
